The source made the active and inactive calls. No cut-off for these calls is given here. Residues, ends and D or L forms follow the SMILES beside them. *: point of attachment. X1 = CCCCCCCCCCCCCCCC(=O)OCC(C*)OC(=O)CCCCCCCCCCCCCCC; Palmitoyl = CCCCCCCCCCCCCCCC(=O)*
Assays:
[1] = test system: PBMC; assay: Toxic induction of IL1-beta level in human PBMC assessed as drug level causing maximal cytokine induction after 24 hrs relative to control; assay type: toxicity, cell-based
[2] = test system: PBMC; assay: Induction of IFNalpha2a level in human PBMC assessed as drug level causing maximal cytokine induction after 24 hrs relative to control; assay type: functional
[3] = test system: PBMC; assay: Toxic induction of IL6 level in human PBMC assessed as drug level causing maximal cytokine induction after 24 hrs relative to control; assay type: toxicity, cell-based
[4] = test system: Hepatitis C virus; assay: Antiviral activity against HCV infected human Huh7 replicon cells treated with drug-induced human PBMC supernatants assessed as viral levels by luciferase assay; assay type: functional, organism-based; conditions: Hepacivirus hominis
[5] = test system: Hepatitis C virus; assay: Antiviral activity against HCV infected human Huh7 replicon cells assessed as viral levels by luciferase assay; assay type: functional, organism-based; conditions: Hepacivirus hominis; Huh-7
[6] = test system: PBMC; assay: Increase in 2',5'-oligoadenylate synthase level in human PBMC after 24 hrs by PCR method relative to control; assay type: functional, cell-based
[7] = test system: PBMC; assay: (§1) Increase in IFNalpha level in human PBMC after 24 hrs relative to control; assay type: functional, cell-based
[8] = test system: Hepatitis C virus; assay: Antiviral activity against HCV infected human Huh7 replicon cells treated with 200 nM drug-induced human PBMC supernatants assessed as viral levels in presence of type I IFN receptor antibody by luciferase assay; assay type: functional, organism-based; conditions: Hepacivirus hominis
[9] = test system: PBMC; assay: Toxic induction of TNFalpha level in human PBMC assessed as drug level causing maximal cytokine induction after 24 hrs relative to control; assay type: toxicity, cell-based
[10] = test system: Hepatitis C virus; assay: Antiviral activity against HCV infected human Huh7 replicon cells treated with 3 uM drug-induced human PBMC supernatants assessed as viral levels in presence of type I IFN receptor antibody by luciferase assay; assay type: functional, organism-based; conditions: Hepacivirus hominis
[11] = test system: Hepatitis C virus; assay: Antiviral activity against HCV infected human Huh7 replicon cells treated with 20 uM drug-induced human PBMC supernatants assessed as viral levels in presence of type I IFN receptor antibody by luciferase assay; assay type: functional, organism-based; conditions: Hepacivirus hominis
[12] = test system: Hepatitis C virus; assay: Antiviral activity against HCV infected human Huh7 replicon cells treated for 48 hrs with drug-induced single donor human PBMC supernatants assessed as viral levels by luciferase assay; assay type: functional, organism-based, Hepacivirus hominis
[13] = test system: Hepatitis C virus; assay: Antiviral activity against HCV infected human Huh7 replicon cells treated for 48 hrs with drug-induced mixed donor human PBMC supernatants assessed as viral levels by luciferase assay; assay type: functional, organism-based, Hepacivirus hominis
[14] = test system: PBMC; assay: Toxicity assessed as increase in TNFalpha level in human PBMC after 6 hrs relative to control; assay type: cell-based
[15] = test system: PBMC; assay: as §1; assay type: functional, cell-based; remark: listed apart in the source
[16] = test system: PBMC; assay: Increase in 2',5'-oligoadenylate synthase level in human PBMC after 24 hrs relative to control; assay type: functional, cell-based
[17] = test system: PBMC; assay: Toxicity assessed as increase in IL6 level in human PBMC after 24 hrs relative to control; assay type: functional, cell-based
[18] = test system: Hepatitis C virus; assay: Antiviral activity against HCV infected human Huh7 replicon cells treated for 24 hrs with drug-induced human PBMC supernatants assessed as viral levels by luciferase assay; assay type: functional, organism-based; conditions: Hepacivirus hominis
[19] = test system: Hepatitis C virus; assay: Antiviral activity against HCV infected human Huh7 replicon cells treated with 100 nM drug-induced human PBMC supernatants assessed as viral levels in presence of type I IFN receptor antibody by luciferase assay; assay type: functional, organism-based; conditions: Hepacivirus hominis

EC50 [12] | EC50 [13] | SMILES | Activity [1] | Activity [2] | Activity [3] | Activity [4] | Activity [5] | Activity [6] | Activity [7] | Activity [8] | Activity [9] | Activity [10] | Activity [11] | fold change (FC) [14] | Activity [15] | Activity [16] | Activity [17] | Activity [18] | Activity [19]
– | – | COCCOc1nc(N)c2[nH]c(=O)n(Cc3ccccc3)c2n1 | 1 µM | 0.1 µM | 1 µM | Active | inactive | Dose-dependent effect | Dose-dependent effect | inactive | 1 µM | – | – | – | – | – | – | – | –
– | – | CCCc1nc2c(N)nc3ccccc3c2s1 | 3.3 µM | 10 µM | 3.3 µM | Active | inactive | Dose-dependent effect | Dose-dependent effect | – | 10 µM | inactive | – | – | – | – | – | – | –
– | – | Cc1cn([C@H]2C[C@H](OP(=O)(O)OC[C@H]3O[C@@H](n4cnc5c(=O)[nH]c(N)nc54)[C@H](O)[C@@H]3OP(=O)(O)OC[C@H]3O[C@@H](n4cc(C)c(=O)[nH]c4=O)C[C@@H]3OP(=O)(O)OC[C@H]3O[C@@H](n4cc(C)c(=O)[nH]c4=O)C[C@@H]3OP(=O)(O)OC[C@H]3O[C@@H](n4cc(C)c(=O)[nH]c4=O)C[C@@H]3OP(=O)(O)OC[C@H]3O[C@@H](n4cc(C)c(=O)[nH]c4=O)C[C@@H]3OP(=O)(O)OC[C@H]3O[C@@H](n4cnc5c(=O)[nH]c(N)nc54)[C@H](O)[C@@H]3OP(=O)(S)OC[C@H]3O[C@@H](n4ccc(N)nc4=O)[C@H](O)[C@@H]3OP(=O)(O)OC[C@H]3O[C@@H](n4cc(C)c(=O)[nH]c4=O)C[C@@H]3OP(=O)(O)OC[C@H]3O[C@@H](n4cc(C)c(=O)[nH]c4=O)C[C@@H]3O)[C@@H](COP(=O)(O)OC[C@H]3O[C@@H](n4cnc5c(=O)[nH]c(N)nc54)[C@H](O)[C@@H]3OP(O)(=S)OC[C@H]3O[C@@H](n4ccc(N)nc4=O)[C@H](O)[C@@H]3OP(=O)(O)OC[C@H]3O[C@@H](n4cc(C)c(=O)[nH]c4=O)C[C@@H]3OP(=O)(O)OC[C@H]3O[C@@H](n4cnc5c(=O)[nH]c(N)nc54)[C@H](O)[C@@H]3OP(=O)(O)OC[C@H]3O[C@@H](n4cc(C)c(=O)[nH]c4=O)C[C@@H]3OP(=O)(O)OC[C@H]3O[C@@H](n4cc(C)c(=O)[nH]c4=O)C[C@@H]3OP(=O)(O)OC[C@H]3O[C@@H](n4cc(C)c(=O)[nH]c4=O)C[C@@H]3OP(=O)(O)OC[C@H]3O[C@@H](n4cc(C)c(=O)[nH]c4=O)C[C@@H]3OP(=O)(O)OC[C@H]3O[C@@H](n4cnc5c(=O)[nH]c(N)nc54)[C@H](O)[C@@H]3OP(O)(=S)OC[C@H]3O[C@@H](n4ccc(N)nc4=O)[C@H](O)[C@@H]3OP(=O)(O)OC[C@H]3O[C@@H](n4cc(C)c(=O)[nH]c4=O)C[C@@H]3OP(=O)(O)OC[C@H]3O[C@@H](n4cc(C)c(=O)[nH]c4=O)C[C@@H]3O)O2)c(=O)[nH]c1=O (some centres not stated) | 5 µM | 0.2 µM | 0.2 µM | Active | inactive | Dose-dependent effect | Dose-dependent effect | – | 5 µM | – | – | – | – | – | – | – | –
– | – | CCCCCCCCCCCCCCCC(=O)N[C@@H](CSCC(COC(=O)CCCCCCCCCCCCCCC)OC(=O)CCCCCCCCCCCCCCC)C(=O)N[C@@H](CO)C(=O)N[C@@H](CCCCN)C(=O)N[C@@H](CCCCN)C(=O)N[C@@H](CCCCN)C(=O)N[C@@H](CCCCN)C(=O)O (some centres not stated) (Palmitoyl-C(X1)SKKKK-OH) | 1 µM | 0.3 µM | 1 µM | Active | inactive | – | – | – | 0.1 µM | – | – | – | – | – | – | – | –
– | – | CC(C)Cn1cnc2c(N)nc3ccccc3c21 [IMIQUIMOD] | 0.1 µg/mL | 1 µg/mL | 1 µg/mL | Active | inactive | Dose-dependent effect | Dose-dependent effect | – | 1 µg/mL | – | inactive | – | – | – | – | – | –
26.5 nM | 24 nM | CCOCc1nc2c(N)nc3ccccc3c2n1CC(C)(C)O [RESIQUIMOD] | 1 µM | 0.1 µM | 1 µM | Active | inactive | Dose-dependent effect | Dose-dependent effect | – | 1 µM | – | – | 2.5 | Active | Active | Active | Active | inactive
